# Results: a melting point compilation (Tetko et al.; mined from patent text by program, amines drawn as free bases though some values may be those of a salt)
row,melting point [°C],SMILES
1,189 to 191,CCC(CC)OC(=O)c1ccc(C(=O)NS(=O)(=O)c2cccc(C(=O)NCCc3ccccc3)c2)cn1
2,143 to 145,N#CC(C(=O)OC1CCCCC1)=C1Nc2ccccc2O1
3,145 to 146,COC(=O)C1=C(C)NC(C(C)(OC)OC)=C(C(=O)OC)C1c1ccccc1Cl (stereo not given)
4,160 to 163,O=C(O)c1cc2c(cc1[N+](=O)[O-])OCO2
5,202 to 204,O=c1[nH]c2ccc(C=CCN3CCC(Cc4ccc(F)cc4)CC3)cc2o1
6,128 to 129,CCCC(=O)OCOC(=O)C1=C(C)NC(C)=C(C(=O)OC)C1c1cccc(Cl)c1Cl (stereo not given)
7,87,CCCCCCCCCOc1ccc(-c2ccc(OCC(C)CC)nn2)cc1 (stereo not given)
8,170,CC(C)N1CC(OCC2CC2)(C(F)(F)F)c2cc(Cl)ccc2NC1=O (stereo not given)
9,182 to 183,CNC(=O)c1cnn(-c2ccc(Cl)cc2Cl)c1C#N
10,165 to 167,C/C(NCC(C)C)=C(\C#N)C(N)=S
11,187 to 188,COc1ccc(CC(=O)NC(NC(=NC#N)Nc2cc(Cl)ccc2F)C(C)(C)C)cc1OC (stereo not given)
12,109 to 110,CC(C)NCc1cccc(Cn2ccc(OCc3ccc(F)cc3F)c(Br)c2=O)c1
13,114 to 115,O=C(CSc1ccncc1)C12CC3CC(CC(C3)C1)C2
14,57 to 60,CCCCCC(Oc1ccc(C2=CCCCCCC2)cc1)C(=O)O (stereo not given)
15,105 to 106,Cc1cc(Br)cnc1CCCNc1ncc(Cc2cccnc2)cc1[N+](=O)[O-]
16,232 to 235,CCCc1nc2c(N)nc3ccccc3c2n1O
17,81 to 82,C/C(=C\c1ccc(OCCN(C)C)cc1)c1ccc2c(c1)C(C)(C)CCS2
18,265 to 266,O=c1[nH]c2cc(Cl)ccc2n(C2CCCCC2)c1=O
19,155 to 157,CC(=O)N(CCCC(=NNC(N)=S)c1ccc(F)cc1)C(C)C
20,120 to 122,CCc1ccc2c(c1)Cc1cc(C(C)=O)ccc1-2
21,145 to 147,O=C(O)c1cccc2c(=O)cc(-c3ccc(OCc4ccccc4)cc3)oc12
22,160 to 162,O=C1N(Cc2ncon2)c2ccccc2C12COc1cc3c(cc12)OCO3 (stereo not given)
23,260 to 263,COc1cc2cc(CO)nc(-c3ccc([N+](=O)[O-])cc3)c2cc1OC

row,melting point [°C],SMILES
1,153 to 154,CC#COc1ccc2oc3ccccc3c(=O)c2c1
2,218 to 220,CC(C)(C)C(NC(=O)Cc1ccc(Cl)cc1)NC(=NC#N)c1cccc2ncccc12 (stereo not given)
3,83,CCCCc1nc2c(=O)n(Cc3ccc(-c4ccccc4C#N)cc3)ccc2n1Cc1ccc(-c2ccccc2C#N)cc1
4,166,Oc1ccc2c(c1)CCCC(c1ccccc1)=C2c1ccc(OCCCCCCSCCCC(F)(F)C(F)(F)F)cc1
5,195 to 197,COc1ccc(C(=O)Nc2ccccc2)cc1NC(=S)Nc1cc(Cl)cc(Cl)c1
6,98.8 to 100,CC(=O)N1CCN(CC(C)NC(=O)c2ccc3c(c2)c(-c2ccccc2)nn3C)CC1 (stereo not given)
7,101 to 104,COC(=O)c1cc(Cn2cncc2C)cc(C(C)(C)C#N)c1
8,169 to 171,COC(=O)N1CCN(C(=O)c2cc(S(=O)(=O)NN(C)C)ccc2N)CC1
9,112 to 113,CC(C)NC(=Nc1ccc(Cl)cc1)Nc1ncccc1OCc1c(F)cccc1F
10,64 to 65,CC(C)(C)OC(=O)Nc1cc(N2CCC(OCCO)CC2)c(I)cc1[N+](=O)[O-]
11,137 to 139,CCCCN1CC(c2ccccc2)=C(O)C1=O
12,> 250,CCOC(=O)c1nc2c(=O)[nH]c3cc(S(C)(=O)=O)ccc3n2c1C
13,177,COCCC(=O)N[C@H]1CC[C@H](CCN2CCN(c3ncc(C)c4occc34)CC2)CC1
14,95 to 97,CCCc1c[nH]c(-c2ccnc(NC(=O)c3ccccc3)c2)n1
15,197 to 200,CCOC(=O)c1nc(NC)sc1-c1cn2ccccc2n1
16,101 to 102,OCCCCCCC1CCC2C(C=CC3=CCCc4c3n2c2ccncc42)C1 (stereo not given)
17,236 to 238,CNC(=O)c1ccc(CN2CCN(c3nc(C)c(-c4cc(C)n[nH]4)s3)C2=O)cc1
18,98 to 102,O=C(c1cc(N2CCC3(CC2)OCCO3)ccn1)N(O)Cc1ccccc1
19,70 to 71,O=C1c2ccccc2C(=O)N1OC/C=C/Cc1ccccc1
20,213 to 214,CCCn1c(=O)c2[nH]c(C34CC5CC(CC(O)(C5)C3)C4)nc2n(CCC)c1=O
21,81 to 86,COc1c(OCc2ccc(-c3ccccc3S(=O)(=O)Nc3noc(C)c3C)c(COCCF)c2)cc(C)nc1C
22,222 to 224,CCOC(=O)c1cn(C)c2cc(C(F)(F)F)ccc2c1=O
23,142 to 143,CCOc1nn(Cc2ccc(OC3CCN(c4ccccn4)CC3)cc2)cc1CCC(=O)O

row,melting point [°C],SMILES
1,185 to 194,CN(C)c1cc(F)c(S(=O)(=O)N(C)C)cc1-n1c(=O)cc(C(F)(F)F)n(C)c1=O
2,77 to 79,COc1ccc(S(=O)(=O)C(CC(=O)NO)Cc2ccccc2)cc1OC (stereo not given)
3,153,CC1(c2ccccc2)OC(C(=O)O)Oc2ccccc21 (stereo not given)
4,59 to 61,Cc1ccsc1C(=O)C[N+](=O)[O-]
5,168 to 171,CC(C)(C)NC(=O)c1nn(-c2ccc(F)cc2F)c2c1CC1CC2C1(C)C (stereo not given)
6,107 to 108,Cc1cc(C[C@H]2NC(=O)O[C@H]2c2ccc(F)cc2)cc(OC(F)(F)C(F)F)c1 (racemic)
7,259 to 261,CCCOc1cc2[nH]c(=O)[nH]c(=O)c2cc1OC
8,70 to 72,N#Cc1ccc(CO)cc1F
9,177,COc1c(C)c(=O)oc2cc(-c3nnc(C)s3)ccc12
10,65 to 66,CC(=O)Nc1ncc(C)cc1Br
11,186,CC(C)(C)OC(=O)N1[C@@H](C(=O)O)C[C@H](S(=O)(=O)c2ccccc2)[C@H]1c1ccccc1F (racemic)
12,141 to 151,CCOC(=O)Cn1cccc(O)c1=O
13,46 to 47,O=C(NCCO)c1cc(-c2cccc3cc(Cc4cccc(C(F)(F)F)c4)sc23)ncn1
14,134 to 136,CCOC(=O)C1=C(C)NC(c2nccn2C)=NC1c1ccc(F)cc1 (stereo not given)
15,157,Cn1nnc2ccc(C(c3cccs3)n3ccnc3)cc21 (stereo not given)
16,125,CCCN(CCCc1c[nH]c2ccc(F)cc12)C1COc2c(F)ccc(C(N)=O)c2C1 (stereo not given)
17,80 to 81,CN(C(=O)c1ccc2nonc2c1)C1CCCCCC1
18,184,COc1cc(-c2nc3ccc(OCCN(C(C)C)C(C)C)cc3n2Cc2ccccc2C(F)(F)F)cc(OC)c1OC
19,193 to 195,O=C(CC1CCCC1)NC[C@H]1CN(c2ccc3c(c2)CCCc2cnoc2-3)C(=O)O1
20,100 to 101,NS(=O)(=O)NCC1CCc2ccccc2O1 (stereo not given)
21,111 to 113,COCCOC[C@H](CC1(C(=O)O)CCCC1)C(=O)Oc1ccc2c(c1)CCC2
22,275 to 276,Clc1cccc(Nc2ncnc3[nH]nc(N4CCOCC4)c23)c1
23,92 to 94,CSNC(=O)c1c(Cl)cccc1[Si](C)(C)C

row,melting point [°C],SMILES
1,158 to 160,CCCNC(=O)c1cnc2cccc(C)n2c1=O
2,201 to 205,O=C(CNc1ccc2[nH]c(=O)[nH]c2c1)N1CCC(Oc2ccc(Cl)cc2)CC1
3,163 to 164,CC(C)[Si](Oc1ccc2c(=O)c(N3CCC(O)(c4ccccc4)CC3)coc2c1)(C(C)C)C(C)C
4,198 to 200,CCOC(=O)c1nn(-c2ccc(Br)cc2)c(=O)c2c(N)scc12
5,156 to 157,CCCCCCCCCC(=O)Nc1ccc(S(=O)(=O)Nc2nnc(C(C)(C)C)s2)cc1
6,97 to 100,CCO[C@H]1C(C(=O)NCc2ccc(Cl)cc2)=C(C)OC(OCC)(OCC)[C@H]1C (relative stereo)
7,141 to 144,C(=N\c1c(-c2ccccc2)cc(-c2ccccc2)cc1-c1ccccc1)/c1ccccn1
8,257 to 258,Cc1oc(-c2ccccc2)nc1COc1ccc(CC2SC(=N)NC2=O)cc1 (stereo not given)
9,144 to 146,COC(=O)C(=C/c1cc(OC)c(OC)c(OC)c1)/C(=C\c1ccccc1)C(N)=O
10,159 to 160,O=C(NCCO)c1cccc(-c2ccc(F)c3cc(Cc4cccc(C(F)(F)F)c4)oc23)c1
11,218 to 220,CC(CC1=C(c2cccc(O)c2)CCCNC1=O)N1CCCCC1 (stereo not given)
12,190,CC(=NO)c1ccc(N2CC(CO)OC2=O)cc1 (stereo not given)
13,193 to 195,N#Cc1ccc(NS(=O)(=O)c2ccc(Cl)cc2)c([N+](=O)[O-])c1
14,145 to 147,Cc1[nH]c(C=O)c(C)c1CCC(=O)O
15,298 to 300,CCCNC(=O)NCc1cccc2c1CN(C1CCC(=O)NC1=O)C2=O (stereo not given)
16,85,CCCCCCCCCCCCCCCCCCOc1ccc(O)c(C(=O)N(N)C(=O)OCCCCCCCC)c1
17,248 to 250,Cc1c(C(=O)NCC(=O)O)oc2cc(-c3ccc(Cn4c(C)nc5ccccc54)cc3)ccc12
18,180 to 182,CC(=O)Nc1c(Cl)ccc(C)c1Cl
19,148 to 150,CCCCCS(=O)(=O)NC(=O)/C=C/c1ccc(OCCOC)cc1Oc1ncc([N+](=O)[O-])cc1C
20,67.3 to 67.6,COc1c([N+](=O)[O-])cc(C)c(C)c1[N+](=O)[O-]
21,180 to 184,C[C@@H]1CNC(=O)c2cc3c(Cl)cccc3n21
22,142,CCCCc1ccc2c(=O)c(O)c(-c3cc(O)c(O)c(O)c3)oc2c1
23,219 to 220,Cc1c(C=O)c2cc(F)ccc2n1-c1ccc(OCc2ccccc2)cc1

row,SMILES,melting point [°C]
1,CCc1nnc2n1-c1ccc(I)cc1C(c1ccccc1F)=NC2,209 to 211
2,CN(C)C1(c2ccccc2)CCC2(OCCc3c2[nH]c2ccc(F)cc32)C(F)C1 (stereo not given),237 to 242
3,CCOC(=O)NC1N=C(c2ccccc2)c2ccccc2-n2c(C)nnc21 (stereo not given),198 to 202
4,CC(=O)N1CC(CCN2CC=C(c3ccc(Cl)cc3)CC2)c2ccccc21 (stereo not given),116 to 118
5,O=[N+]([O-])c1ccc(Cl)nc1N1CCNCC1,50 to 53
6,c1ccc2cc(N3CCNCC3)ncc2c1,95 to 96
7,COc1cc(CCl)nc(N)n1,89 to 90
8,CN1CC2=C(n3cncc3C1)S(=O)C=C2 (stereo not given),160 to 163
